This note sets out measurements from patent publication US11312727B1, “Macrocyclic flu endonuclease inhibitors” (Janssen BioPharma, Inc., priority 2018, dated 2022).

pEC50: −log10 of the molar value. Some results are limits rather than exact numbers.

As usually defined, the CC50 is the concentration at which the toxic effect on the cells reaches its halfway point. Read a low CC50 as greater toxicity to the cells. What is called pEC50 is −log10 of the EC50, conventionally taken in molar units.

One data set is described as follows: in vitro. The note with it: human, CC50, uninfected A549 cells, CellTiter-Glo. For orientation: ATP-based viability assays read luminescence as a measure of living cells.
Data set [1] concerns Influenza strain A549 A/WSN/33 (H1N1). The data set can be described thus: microbe, parasite or virus in culture. As to conditions: Influenza A virus, A549, 20 h, A549 cells, influenza A/WSN/33 (H1N1), 20 hours incubation; read-out: A549_A(H1N1) EC50. It is filed as cell-based.

`O=C1c2c(O)c(=O)ccn2N2CN1C1(/C=C/COc3cccc4c3[C@@H]2c2ccccc2SC4)CC1` (single isomer, unassigned) [Compound 107A, (17a′*R,*E)-12′-hydroxy-2′,17a′-dihydro-6′H-spiro[cyclopropane-1,9′-[3,4](epiprop[1]en[1]yl[3]ylidene)[10,17]methanobenzo[6,7]thiepino[4,5-c]pyrido[1,2-f][1]oxa[5,6,9]triazacyclotridecine]-11′,13′-dione]: the CC50 in “in vitro” is over 200 nM. Moreover, the pEC50 in data set [1] was under 7.00.

`O=C1c2c(O)c(=O)ccn2N2CN1C1(/C=C/COc3cccc4c3[C@H]2c2ccccc2SC4)CC1` (single isomer, unassigned) [Compound 107B, (17a′*S,*E)-12′-hydroxy-2′,17a′-dihydro-6′H-spiro[cyclopropane-1,9′-[3,4](epiprop[1]en[1]yl[3]ylidene)[10,17]methanobenzo[6,7]thiepino[4,5-c]pyrido[1,2-f][1]oxa[5,6,9]triazacyclotridecine]-11′,13′-dione]: the CC50 in the data set “in vitro” is over 100 nM. For the same molecule, the pEC50 in data set [1] is 9.00.

`O=C1c2c(O)c(=O)ccn2N2CN1C1(/C=C/COc3cc(F)c(F)c4c3[C@@H]2c2ccccc2SC4)CC1` (single isomer, unassigned) [Compound 108A, (17a′*R,*E)-24′,25′-difluoro-12′-hydroxy-2′,17a′-dihydro-6′H-spiro[cyclopropane-1,9′-[3,4](epiprop[1]en[1]yl[3]ylidene)[10,17]methanobenzo[6,7]thiepino[4,5-c]pyrido[1,2-f][1]oxa[5,6,9]triazacyclotridecine]-11′,13′-dione] returned a 50% cytotoxic concentration (CC50) in “in vitro” of 22600 nM. Also, the pEC50 in data set [1] is 6.08.

In “in vitro”, `O=C1c2c(O)c(=O)ccn2N2CN1C1(/C=C/COc3cc(F)c(F)c4c3[C@H]2c2ccccc2SC4)CC1` (single isomer, unassigned) [Compound 108B, (17a′*S,*E)-24′,25′-difluoro-12′-hydroxy-2′,17a′-dihydro-6′H-spiro[cyclopropane-1,9′-[3,4](epiprop[1]en[1]yl[3]ylidene)[10,17]methanobenzo[6,7]thiepino[4,5-c]pyrido[1,2-f][1]oxa[5,6,9]triazacyclotridecine]-11′,13′-dione] came in with a cytotoxic concentration (CC50) of over 50 nM. In addition, in data set [1], the pEC50 was 9.70.

As to `O=C1c2c(O)c(=O)ccn2N2CN1C1(/C=C\COc3cc(F)c(F)c4c3[C@@H]2c2ccccc2SC4)CC1` (single isomer, unassigned) [Compound 108C], in “in vitro”, the CC50 was over 200 nM. In addition, the negative logarithm of the EC50 (pEC50) in data set [1] is under 7.00.

As for `O=C1c2c(O)c(=O)ccn2N2CN1C1(/C=C\COc3cc(F)c(F)c4c3[C@H]2c2ccccc2SC4)CC1` (single isomer, unassigned) [Compound 108D], in the data set “in vitro”, the CC50 was over 200 nM. The pEC50 in data set [1] was 9.05.

In the case of `COC[C@@H]1N2C/C=C\COc3ccccc3[C@@H](c3ccccc3)N1n1ccc(=O)c(O)c1C2=O` (single isomer, unassigned) [Compound 109A, (18*R,19*R,*Z)-12-hydroxy-19-(methoxymethyl)-18-phenyl-6,9-dihydro-18H-10,17-methanobenzo[b]pyrido[1,2-f][1]oxa[5,6,9]triazacyclotridecine-11,13-dione], the 50% cytotoxic concentration (CC50) in “in vitro” is over 200 nM. Moreover, the pEC50 in data set [1] is 8.18.

Molecule `COC[C@H]1N2C/C=C\COc3ccccc3[C@H](c3ccccc3)N1n1ccc(=O)c(O)c1C2=O` (single isomer, unassigned) [Compound 109B, (18*S,19*S,*Z)-12-hydroxy-19-(methoxymethyl)-18-phenyl-6,9-dihydro-18H-10,17-methanobenzo[b]pyrido[1,2-f][1]oxa[5,6,9]triazacyclotridecine-11,13-dione] registered a 50% cytotoxic concentration (CC50) in “in vitro” of over 200 nM. The negative logarithm of the EC50 (pEC50) in data set [1] is under 7.00.

For `Cc1cccc2c1OC/C=C\CN1CN([C@H]2c2ccccc2)n2ccc(=O)c(O)c2C1=O` (single isomer, unassigned) [Compound 110A, (18*S,Z)-12-hydroxy-4-methyl-18-phenyl-6,9-dihydro-18H-10,17-methanobenzo[b]pyrido[1,2-f][1]oxa[5,6,9]triazacyclotridecine-11,13-dione], in “in vitro”, the CC50 was over 200 nM. Moreover, the pEC50 in data set [1] was 8.19.

For `Cc1cccc2c1OC/C=C\CN1CN([C@@H]2c2ccccc2)n2ccc(=O)c(O)c2C1=O` (single isomer, unassigned) [Compound 110B, (18*R,Z)-12-hydroxy-4-methyl-18-phenyl-6,9-dihydro-18H-10,17-methanobenzo[b]pyrido[1,2-f][1]oxa[5,6,9]triazacyclotridecine-11,13-dione], the CC50 in “in vitro” was over 200 nM. For the same molecule, the pEC50 in data set [1] is under 7.00.

In the data set “in vitro”, `O=C1c2c(O)c(=O)ccn2N2CN1CC/C=C/COc1c(ccc(Cl)c1Cl)[C@@H]2c1ccccc1` (single isomer, unassigned) [Compound 111A, (2*S,*E)-33,34-dichloro-15-hydroxy-2-phenyl-12,13,14,16-tetrahydro-11H-4-oxa-1(1,3)-pyrido[2,1-f][1,2,4]triazina-3(1,2)-benzenacyclononaphan-6-ene-14,16-dione] showed a cytotoxic concentration (CC50) of over 200 nM. For the same molecule, in data set [1], the negative-log EC50 (pEC50) was 8.37.

Take `O=C1c2c(O)c(=O)ccn2N2CN1CC/C=C/COc1c(ccc(F)c1F)[C@@H]2c1ccccc1` (single isomer, unassigned) [Compound 112A, (2*S,E)-33,34-difluoro-15-hydroxy-2-phenyl-12,13,14,16-tetrahydro-11H-4-oxa-1(1,3)-pyrido[2,1-f][1,2,4]triazina-3(1,2)-benzenacyclononaphan-6-ene-14,16-dione]: the CC50 in “in vitro” is over 200 nM. The pEC50 in data set [1] is 8.42.

For the molecule `O=C1c2c(O)c(=O)ccn2N2CN1C1(/C=C/COc3c(ccc(Cl)c3Cl)[C@H]2c2ccccc2)CC1` (single isomer, unassigned) [Compound 113A, (18′*R,*E)-3′,4′-dichloro-12′-hydroxy-18′-phenyl-6′H,18′H-spiro[cyclopropane-1,9′-[10,17]methanobenzo[b]pyrido[1,2-f][1]oxa[5,6,9]triazacyclotridecine]-11′,13′-dione], the CC50 in the data set “in vitro” is over 200 nM. In data set [1], the negative-log EC50 (pEC50) was under 7.00.

Molecule `O=C1c2c(O)c(=O)ccn2N2CN1C1(/C=C/COc3c(ccc(Cl)c3Cl)[C@@H]2c2ccccc2)CC1` (single isomer, unassigned) [Compound 113B, (18′*S,*E)-3′,4′-dichloro-12′-hydroxy-18′-phenyl-6′H,18′H-spiro[cyclopropane-1,9′-[10,17]methanobenzo[b]pyrido[1,2-f][1]oxa[5,6,9]triazacyclotridecine]-11′,13′-dione] returned a CC50 in “in vitro” of over 200 nM. Moreover, in data set [1], the pEC50 is 8.70.

Molecule `O=C1c2c(O)c(=O)ccn2N2CN1CCCCOc1c(F)cccc1[C@H]2c1ccccc1` (single isomer, unassigned) [Compound 114A, (18*R)-4-fluoro-12-hydroxy-18-phenyl-6,7,8,9-tetrahydro-18H-10,17-methanobenzo[b]pyrido[1,2-f][1]oxa[5,6,9]triazacyclotridecine-11,13-dione] registered a 50% cytotoxic concentration (CC50) in “in vitro” of over 200 nM. Moreover, the pEC50 in data set [1] was 8.15.

In “in vitro”, `O=C1c2c(O)c(=O)ccn2N2CN1CCCCOc1c(F)cccc1[C@@H]2c1ccccc1` (single isomer, unassigned) [Compound 114B, (18*S)-4-fluoro-12-hydroxy-18-phenyl-6,7,8,9-tetrahydro-18H-10,17-methanobenzo[b]pyrido[1,2-f][1]oxa[5,6,9]triazacyclotridecine-11,13-dione] returned a CC50 of over 200 nM. In addition, in data set [1], the pEC50 is under 7.00.

`O=C1c2c(O)c(=O)ccn2N2CN1CCCCOc1c(ccc(F)c1F)[C@H]2c1ccccc1` (single isomer, unassigned) [Compound 115A, (18*R)-3,4-difluoro-12-hydroxy-18-phenyl-6,7,8,9-tetrahydro-18H-10,17-methanobenzo[b]pyrido[1,2-f][1]oxa[5,6,9]triazacyclotridecine-11,13-dione] gave a CC50 in the data set “in vitro” of over 200 nM. Also, in data set [1], the pEC50 is under 7.00.

In the data set “in vitro”, `O=C1c2c(O)c(=O)ccn2N2CN1CCCCOc1c(ccc(F)c1F)[C@@H]2c1ccccc1` (single isomer, unassigned) [Compound 115B, (18*S)-3,4-difluoro-12-hydroxy-18-phenyl-6,7,8,9-tetrahydro-18H-10,17-methanobenzo[b]pyrido[1,2-f][1]oxa[5,6,9]triazacyclotridecine-11,13-dione] yielded a CC50 of over 200 nM. Besides, the negative-log EC50 (pEC50) in data set [1] was 8.36.

In the data set “in vitro”, `O=C1c2c(O)c(=O)ccn2N2CN1CC/C=C\COc1c(ccc(F)c1F)[C@@H]2c1ccccc1` (single isomer, unassigned) [Compound 116A, (2*S,Z)-33,34-difluoro-15-hydroxy-2-phenyl-12,13,14,16-tetrahydro-11H-4-oxa-1(1,3)-pyrido[2,1-f][1,2,4]triazina-3(1,2)-benzenacyclononaphan-6-ene-14,16-dione] returned a CC50 of over 200 nM. Moreover, the pEC50 in data set [1] is 7.85.

For the molecule `COc1ccccc1[C@@H]1c2cccc(F)c2OC/C=C\CN2CN1n1ccc(=O)c(O)c1C2=O` (single isomer, unassigned) [Compound 117A, (18*R,*Z)-4-fluoro-12-hydroxy-18-(2-methoxyphenyl)-6,9-dihydro-18H-10,17-methanobenzo[b]pyrido[1,2-f][1]oxa[5,6,9]triazacyclotridecine-11,13-dione], the half-maximal cytotoxic concentration (CC50) in “in vitro” is over 200 nM. For the same molecule, the negative logarithm of the EC50 (pEC50) in data set [1] is 7.54.

In the case of `COc1ccccc1[C@H]1c2cccc(F)c2OC/C=C\CN2CN1n1ccc(=O)c(O)c1C2=O` (single isomer, unassigned) [Compound 117B, (18*S,*Z)-4-fluoro-12-hydroxy-18-(2-methoxyphenyl)-6,9-dihydro-18H-10,17-methanobenzo[b]pyrido[1,2-f][1]oxa[5,6,9]triazacyclotridecine-11,13-dione], the cytotoxic concentration (CC50) in “in vitro” was over 200 nM. For the same molecule, the negative logarithm of the EC50 (pEC50) in data set [1] is under 7.00.
